Assay results: patent publication US20180282403A1, “AGENTS FOR REDUCING THE ACTIVITY OF GDF15” (GENAGON THERAPEUTICS AB, priority 2015, published 2018)

Assays:
CD14+ cells = assay: Cytokine secretion by LPS-stimulated CD14+ cells (Proseek assay); format: cell-based; conditions: LPS stimulated CD14+ cells incubated with GDF15
Method: CD14+ cells where isolated and cultured in the presence or absence of GDF15 in a LPS stimulated culture.
Buffy coat cell suspension or heparinized blood samples were diluted with sterile, room temperature PBS. Peripheral blood samples are diluted 1:1, whereas buffy coats are diluted to a final volume of 120 ml (in a standard buffy coat this will result in slightly greater dilution than 1:1). The diluted cell suspension was layered onto Ficoll Paque PLUS. For one buffy 4×15 ml aliquots are used (30 ml of diluted cell suspension/tube). Cells were centrifuged at 400×g for 30 min at room temperature and transferred to a new 50 ml tube. Cells were washed once and resuspended in 20 ml PBS.
Mononuclear cell suspension was pelleted by centrifugation. Cells were resuspended in Stemcell buffer at a concentration of 10^8 cells/ml and transferred to a round bottom 14 ml tube. EasySep Positive Selection cocktail at was added at 100 μl/ml cells, mixed by gentle pipetting, and incubated at room temperature for 15 min. 50 μl EasySep Magnetic Nanoparticles per 1 ml cells were added and mixed, and incubated at room temperature for 10 min. Stemcell recommended medium was added to bring the cell suspension to a total volume of 5 ml and mixed by gently pipetting. The tube (without cap) was placed into the magnet and set aside for 5 min. After 5 minutes the supernatant was discarded. CD14+ labelled cells will remain inside the tube. The tube was removed from the magnet and add 5 ml Stemcell recommended medium was added and mixed by gently pipetting. The tube (without cap) was placed into the magnet and set aside for 5 min. The was step was repeated before the cells were resuspended in 5 ml complete RPMI medium. 50 μl of the CD14+ cell suspension was removed and counted to determine total cell number after dilution in Trypan blue solution and mounting on Fast Read 102 Counting Slides.
Adjust CD14+ cell suspension volume to a concentration of 0.833×10^6 cells/ml in complete RPMI medium. 300 μl of cell suspension is added to wells in a 48 well plate well (0.25×10^6 cells per well), and allowed to adhere for 90 min in an incubator at 37° C. Non-adherent cells were removed by removal of the supernatant after gently pipetting the medium. Cells were washed once with 300 μl pre-warmed complete RPMI medium and the medium aspirated off. 300 μl pre-warmed complete RPMI medium was added to each well and the cells were incubate overnight (20-24 h) in a cell incubator at 37° C.
A 17× stock solution of the desired GDF15 modulatory substances was diluted in complete RPMI. (20 μl of substance/well assayed). 20 μl of modulatory substance or medium/carrier (negative control) was added to each well and mixed by gentle pipetting. Cells were incubated for 30 min in a cell incubator at 37° C. A 17×GDF15 solution was prepared by diluting a 100 μg/ml stock solution to a concentration of 8.5 μg/ml (final concentration in culture 0.5 μg/ml) in complete RPMI. 20 μl of diluted GDF15 was added per well, and incubated overnight (18-20 h) in a cell incubator at 37° C.
A 18×LPS solution was prepared by diluting the LPS stock solution to a concentration of 18 ng/ml (final concentration in culture 1 ng/ml) in complete RPMI. 20 μl of LPS or medium (negative control) was added to each well and mixed by gentle pipetting. […]
Secreted proteins from cell cultures where quantified using multiplexed proximity extension assay, Proseek (Assarsson E et al PlosOne 2014) by Olink Proteomics AB (Uppsala Sweden). […]

QRFPR = molecular target: T1, QRFPR (Homo sapiens, UniProt Q96P65); assay: Western blot of QRFPR positive exosomes from conditioned medium of MCF-7 cells; format: cell-based; conditions: MCF-7 cells exposed to GDF15 vs not exposed; FIG. 1B
T1 construct: endogenous in cells
T1 sequence (Q96P65 1-431): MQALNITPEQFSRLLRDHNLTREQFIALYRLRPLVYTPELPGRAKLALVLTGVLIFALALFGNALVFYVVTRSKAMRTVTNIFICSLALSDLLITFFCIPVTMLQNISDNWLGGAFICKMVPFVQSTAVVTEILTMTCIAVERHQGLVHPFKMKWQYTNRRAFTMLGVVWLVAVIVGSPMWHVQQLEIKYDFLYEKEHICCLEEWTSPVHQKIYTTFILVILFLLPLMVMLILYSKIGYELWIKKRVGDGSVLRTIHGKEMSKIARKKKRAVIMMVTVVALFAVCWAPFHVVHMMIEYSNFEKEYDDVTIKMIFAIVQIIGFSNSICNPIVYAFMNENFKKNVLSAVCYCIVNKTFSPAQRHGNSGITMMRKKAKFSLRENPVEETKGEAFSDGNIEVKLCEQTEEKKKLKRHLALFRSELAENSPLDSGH
Method: Conditioned cell culture media were sequentially centrifuged for 5 min at 3,000 x g to pellet the cells and then at 10,000×g for 10 min to further remove cells and cell debris. The supernatant was then filtered through a 0.45 μm filter and then finally pelleted at 100,000×g for 2 h at 4° c. Pelleted exosomes were resuspended in PBS and protease inhibitor (complete mini, Roche) was added. The samples were then prepared for further analyses as described elsewhere.
Material from the ultracentrifuged pellet was separated on a 12.5% SDS-PAGE gel (Biorad) at 150 v for 80 min, wet transferred to a Immobilon K membrane, blocked with 5% BSA for 1 h RT, and incubated with the corresponding QRFPR antibodies o/n at +4 with mild agitation. The membranes were washed with TBST, and the corresponding secondary antibodies, conjugated to horse radish peroxidase, were applied for 1 hr RT, the membrane washed with TBST and developed using an ECL detection reagent (FIG. 1B).

GDF15: Growth and differentiation factor 15, from mammalian source or recombinant from E. coli (Abcam, Biovision)
LPS response secretion of IL12 (CD14+ cells): reduced
LPS response secretion of TNF (CD14+ cells): reduced
QRFPR in exosomes from conditioned medium (QRFPR): higher levels of QRFPR in conditioned medium
